Results as given in patent publication US20230150970A1, “AMINOPYRIMIDINE DERIVATIVES AND THEIR USE AS ARYL HYDROCARBON RECEPTOR MODULATORS” (DONG-A ST CO., LTD., priority 2020, published 2023).
pEC50, pIC50: −log10 of the molar value. Where two headings read alike, the source gives them in different places.

How the values were obtained:
AhR [1] = target: T1, AhR (Mus musculus, UniProt P30561); experiment: In Vitro Assay 2: XRE-luciferase reporter assay, antagonism in mouse cell line (Hepa1c1c7); assay type: cell-based; settings: 6 hours, read-out: Assay 2: AhR-Luc Mouse Antagonism (IC50)
T1 sequence (P30561 1-848): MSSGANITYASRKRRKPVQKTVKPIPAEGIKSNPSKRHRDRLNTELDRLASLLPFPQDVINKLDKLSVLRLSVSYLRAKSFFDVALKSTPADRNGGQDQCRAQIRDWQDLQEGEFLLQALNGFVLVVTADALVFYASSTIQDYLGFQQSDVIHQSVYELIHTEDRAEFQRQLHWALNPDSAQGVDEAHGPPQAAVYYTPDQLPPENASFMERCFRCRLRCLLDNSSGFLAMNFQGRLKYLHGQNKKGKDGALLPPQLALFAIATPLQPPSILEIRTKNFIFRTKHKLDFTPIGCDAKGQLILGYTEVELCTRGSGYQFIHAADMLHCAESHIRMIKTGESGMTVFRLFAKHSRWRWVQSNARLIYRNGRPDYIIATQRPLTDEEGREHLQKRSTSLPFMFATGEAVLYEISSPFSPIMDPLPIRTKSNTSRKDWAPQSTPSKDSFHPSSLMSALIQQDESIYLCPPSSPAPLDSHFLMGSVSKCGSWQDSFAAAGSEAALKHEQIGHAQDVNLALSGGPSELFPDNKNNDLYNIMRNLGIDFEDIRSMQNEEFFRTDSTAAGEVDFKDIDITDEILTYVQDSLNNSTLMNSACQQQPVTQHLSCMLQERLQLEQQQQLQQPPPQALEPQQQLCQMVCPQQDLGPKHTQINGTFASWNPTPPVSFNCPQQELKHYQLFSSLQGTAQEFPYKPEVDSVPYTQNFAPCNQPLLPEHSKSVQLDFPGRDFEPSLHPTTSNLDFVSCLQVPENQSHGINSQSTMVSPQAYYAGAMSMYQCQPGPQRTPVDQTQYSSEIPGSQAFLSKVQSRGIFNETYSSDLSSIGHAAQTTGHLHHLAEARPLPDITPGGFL
Method: In Vitro Assay 2: Antagonism in Mouse Cell Line
Hepa1c1c7 (murine liver cancer cell line) cells co-transfected with XRE-Luc and Nano-Luc plasmids were plated in complete medium and incubated overnight at 37° C. in a CO2 incubator. Following incubation, cells were treated with AhR activating ligands such as kynurenic acid, kynurenine (#) with or without test compounds for 6 hours.

AhR [2] = target: T2, AhR (Homo sapiens, UniProt P35869); experiment: In Vitro Assay 3: XRE-luciferase reporter assay, agonism in human cell line (HepG2); assay type: cell-based; set-up: endogenous in cells; host or cells: HepG2; settings: HepG2, tryptophan free medium, 6 hours, no agonist, read-out: Assay 3: AhR-Luc Human Agonism (EC50)
T2 sequence (P35869 11-848): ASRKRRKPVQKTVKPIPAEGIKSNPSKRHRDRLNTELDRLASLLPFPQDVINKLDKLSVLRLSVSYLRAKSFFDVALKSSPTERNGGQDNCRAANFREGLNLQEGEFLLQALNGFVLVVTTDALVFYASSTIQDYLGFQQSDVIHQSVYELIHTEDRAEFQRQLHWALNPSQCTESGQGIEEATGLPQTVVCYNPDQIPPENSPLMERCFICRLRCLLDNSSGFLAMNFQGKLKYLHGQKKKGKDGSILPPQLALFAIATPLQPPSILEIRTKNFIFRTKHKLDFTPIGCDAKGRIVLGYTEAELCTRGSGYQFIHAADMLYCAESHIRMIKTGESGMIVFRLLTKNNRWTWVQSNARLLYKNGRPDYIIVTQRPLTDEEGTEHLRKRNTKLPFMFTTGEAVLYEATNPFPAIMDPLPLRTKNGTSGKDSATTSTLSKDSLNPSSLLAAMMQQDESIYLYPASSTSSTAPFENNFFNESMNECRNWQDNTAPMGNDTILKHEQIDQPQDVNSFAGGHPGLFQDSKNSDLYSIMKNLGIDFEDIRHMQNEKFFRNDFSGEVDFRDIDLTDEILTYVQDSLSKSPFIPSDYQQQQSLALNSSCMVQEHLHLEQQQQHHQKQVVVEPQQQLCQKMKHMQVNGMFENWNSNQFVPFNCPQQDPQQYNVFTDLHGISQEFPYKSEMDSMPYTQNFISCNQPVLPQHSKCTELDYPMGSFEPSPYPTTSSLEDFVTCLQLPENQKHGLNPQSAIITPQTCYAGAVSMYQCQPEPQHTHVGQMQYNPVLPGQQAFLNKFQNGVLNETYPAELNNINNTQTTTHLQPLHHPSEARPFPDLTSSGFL
Method: In Vitro Assay 3: Agonism in Human Cell Line
HepG2 (human hepatoma cell line) cells co-transfected with XRE-Luc and Nano-Luc plasmids were plated in tryptophan free medium containing 1% of dialyzed fetal bovine serum and incubated overnight at 37° C. in a CO2 incubator. After 24 hours, cells were treated for 6 hours with test compounds or not. […] As a positive control, cells were incubated with TCDD.

AhR [3] = target: T2, AhR; experiment: In Vitro Assay 1: XRE-luciferase reporter assay, antagonism in human cell line (HepG2); settings: for IC50: Assay 1: AhR-Luc Human Antagonism (IC50, nM), 6 hours
Text: In Vitro XRE-Luciferase Reporter Assay (In Vitro Assay 1, 2, 3) AhR activation leads the induction of target gene expression such as CYP1A1 and CYPIB1 by AhR binding to AhR-responsive DNA elements also known as xenobiotics responsive elements (XREs). The assay for measuring AhR activity herein is the luciferase assay using cell lines transfected with luciferase reporter plasmid containing XREs at the upstream of the reporter gene. Cells transfected with XRE-luciferase reporter (XRE-Luc), plasmid drive luciferase activity reflecting activation and inhibition of AhR in the cells. […] Kynurenine (an endogenous AhR agonist), was used to stimulate cells to test antagonistic properties of the compounds. The half-maximal inhibitory concentration (IC50), or half-maximal effective concentration (EC50), value was calculated using nonlinear regression (four parameters), with Prism8.0 software (GraphPad).
In Vitro Assay 1: Antagonism in Human Cell Line
HepG2 (human hepatoma cell line) cell line with a XRE-luciferase reporter either transiently or stably (Invivogen) were plated in complete medium and incubated at 37° C. in a CO2 incubator. After 24 hours, cells were treated with kynurenine (50* or 200 μM) alone (negative control) or with test compounds for 6 hours. Luciferase activity was measured with a commercial kit such as the Promega Luciferase kit or Invivogen Luciferase kit. Relative luciferase activity (Firefly/Nano-Luc) was used to calculate IC50 values. […] (IC50 values are grouped as A, B, C and D, whereby A: IC50<0.01 μM; B: 0.01<IC50<0.1 μM; C: 0.1<IC50<1.0 μM; D: IC50>1.0 μM)

AhR [4] = target: T2, AhR; experiment: In Vitro Assay 4: endogenous AhR activity assay (CYP1A1 and CYP1B1 mRNA, qRT-PCR, HepG2 cells)
[5] = values marked #: AhR activating ligand kynurenine
[6] = values marked *: kynurenine 50 μM
[7] = unmarked values: kynurenine 200 μM
[8] = HepG2, read-out: CYP1A1 (% Inhibition)
[9] = HepG2, read-out: CYP1B1 (% Inhibition)
[10] = unmarked values: AhR activating ligand kynurenic acid

pIC50 (AhR [1]; [5])	pEC50 (AhR [2]; class in brackets of the cell)	pEC50 (AhR [2]; number of the cell)	IC50 (AhR [3]; [6])	Molecule	IC50 (AhR [3]; [7])	inhibition at 0.123 µM (AhR [4]; [8])	also measured
6.00 to 7.00	< 5.00	< 4.52	10 to 100 nM	CN1CCN(C2CCN(c3cc(-c4ccc(Cl)cc4)nc(-c4cccnc4)n3)CC2)CC1 [Example 92, 4-(4-chlorophenyl)-6-(4-(4-methylpiperazin-1-yl)piperidin-1-yl)-2-(pyridin-3-yl)pyrimidine]	–	–	–
7.00 to 8.00	< 5.00	< 4.52	–	CS(=O)(=O)N1CCN(c2cc(-c3ccc(Cl)cc3)nc(-c3cccnc3)n2)CC1 [Example 107, 4-(4-chlorophenyl)-6-(4-(methylsulfonyl)piperazin-1-yl)-2-(pyridin-3-yl)pyrimidine]	< 10 nM	–	–
6.00 to 7.00	< 5.00	< 4.52	< 10 nM	CC(=O)NC1CCN(c2cc(-c3ccc(Cl)cc3)nc(-c3cccnc3)n2)C1 (centres unmarked) [Example 143, N-(1-(6-(4-chlorophenyl)-2-(pyridin-3-yl)pyrimidin-4-yl)pyrrolidin-3-yl)acetamide]	–	–	–
7.00 to 8.00	< 5.00	< 4.52	< 10 nM	CC(=O)N1CCC(CNc2cc(-c3ccc(Cl)cc3)nc(-c3cccnc3)n2)CC1 [Example 154, 1-(4-(((6-(4-chlorophenyl)-2-(pyridin-3-yl)pyrimidin-4-yl)amino)methyl)piperidin-1-yl)ethan-1-one]	–	–	–
6.00 to 7.00	< 5.00	< 4.52	< 10 nM	O[C@H]1CC[C@@H](Nc2cc(-c3ccc(Cl)cc3)nc(-c3cccnc3)n2)C1 [Example 162, (1S,3R)-3-((6-(4-chlorophenyl)-2-(pyridin-3-yl)pyrimidin-4-yl)amino)cyclopentan-1-ol]	–	–	–
–	–	–	–	COc1ccc(-c2cc(N3CCC(CO)CC3)nc(-c3cccnc3)n2)cc1 [Example 228, (1-(6-(4-methoxyphenyl)-2-(pyridin-3-yl)pyrimidin-4-yl)piperidin-4-yl)methanol]	10 to 100 nM	107%	inhibition at 0.123 µM (AhR [4]; [9]): 101%
6.00 to 7.00	–	7.40	< 10 nM	OCC1CN(c2cc(-c3ccc(Cl)cc3)nc(-c3cccnc3)n2)CC1O (centres unmarked) [Example 236, 1-(6-(4-chlorophenyl)-2-(pyridin-3-yl)pyrimidin-4-yl)-4-(hydroxymethyl)pyrrolidin-3-ol]	–	–	–
–	–	–	–	OC[C@H]1CN(c2cc(-c3ccc(C(F)(F)F)cc3)nc(-c3cccnc3)n2)C[C@@H]1O [Example 258, (3R,4R)-4-(hydroxymethyl)-1-(2-(pyridin-3-yl)-6-(4-(trifluoromethyl)phenyl)pyrimidin-4-yl)pyrrolidin-3-ol]	< 10 nM	101%	pIC50 (AhR [1]; [10]): > 8.00
–	–	–	–	OC[C@H]1CN(c2cc(-c3ccc(C(F)(F)F)cc3)nc(-c3cccnc3)n2)CCO1 [Example 280, (R)-(4-(2-(pyridin-3-yl)-6-(4-(trifluoromethyl)phenyl)pyrimidin-4-yl)morpholin-2-yl)methanol]	< 10 nM	–	pIC50 (AhR [1]; [10]): 7.00 to 8.00
–	< 5.00	< 4.52	–	OC[C@@H]1CCN(c2cc(-c3ccc(Cl)cc3)nc(-c3cccnc3)n2)C[C@H]1F [Example 282, ((3S,4S)-1-(6-(4-chlorophenyl)-2-(pyridin-3-yl)pyrimidin-4-yl)-3-fluoropiperidin-4-yl)methanol]	< 10 nM	–	pIC50 (AhR [1]; [10]): 6.00 to 7.00
–	< 5.00	< 4.52	–	O[C@H]1CN(c2cc(-c3ccc(C(F)(F)F)cc3)nc(-c3cccnc3)n2)C[C@@H]1O [Example 283, (3S,4S)-1-(2-(pyridin-3-yl)-6-(4-(trifluoromethyl)phenyl)pyrimidin-4-yl)pyrrolidine-3,4-diol]	< 10 nM	–	pIC50 (AhR [1]; [10]): 7.00 to 8.00
–	–	–	–	Cn1cc(-c2nc(-c3ccc(C(F)(F)F)cc3)cc(N3CC[C@@H](C(=O)O)C3)n2)cn1 [Example 312, (R)-1-(2-(1-methyl-1H-pyrazol-4-yl)-6-(4-(trifluoromethyl)phenyl)pyrimidin-4-yl)pyrrolidine-3-carboxylic acid]	–	–	pIC50 (AhR [1]; [10]): < 6.00
–	–	–	–	O=S(=O)(C(F)F)N1CCN(c2cc(-c3ccc(Cl)cc3)nc(-c3cccnc3)n2)CC1 [Example 339, 4-(4-chlorophenyl)-6-(4-((difluoromethyl)sulfonyl)piperazin-1-yl)-2-(pyridin-3-yl)pyrimidine]	10 to 100 nM	84.7%	–
–	–	–	–	O=S(=O)(CCO)N1CCN(c2cc(-c3ccc(C(F)(F)F)cc3)nc(-c3cccnc3)n2)CC1 [Example 349, 2-((4-(2-(pyridin-3-yl)-6-(4-(trifluoromethyl)phenyl)pyrimidin-4-yl)piperazin-1-yl)sulfonyl)ethan-1-ol]	< 10 nM	97.6%	–
7.00 to 8.00	–	–	–	(3R,4R)-1-(6-(4-chlorophenyl)-2-(pyridin-3-yl)pyrimidin-4-yl)pyrrolidine-3,4-diol [Example 230]	–	–	pIC50 (AhR [3]; read-out: Assay 1: AhR-Luc Human Antagonism (IC50), values marked *: kynurenine 50 μM, 6 hours): 7.00 to 8.00
7.00 to 8.00	< 5.00	< 4.52	–	(3R,4S)-1-(6-(4-chlorophenyl)-2-(pyridin-3-yl)pyrimidin-4-yl)pyrrolidine-3,4-diol [Example 231]	–	–	pIC50 (AhR [3]; read-out: Assay 1: AhR-Luc Human Antagonism (IC50), unmarked values: kynurenine 200 μM, 6 hours): > 8.00

Molecule	pIC50 (AhR [1]; [5])	pEC50 (AhR [2]; class in brackets of the cell)	pEC50 (AhR [2]; number of the cell)	IC50 (AhR [3]; [6])	IC50 (AhR [3]; [7])	inhibition at 0.123 µM (AhR [4]; [8])	also measured
Cc1ccc(-c2cc(N3CCC(CO)CC3)nc(-c3cccnc3)n2)cc1 [Example 229, (1-(2-(pyridin-3-yl)-6-(p-tolyl)pyrimidin-4-yl)piperidin-4-yl)methanol]	–	< 5.00	< 4.52	–	10 to 100 nM	108%	inhibition at 0.123 µM (AhR [4]; [9]): 101%
CC(=O)N1CCCN(c2cc(-c3ccc(Cl)cc3)nc(-c3cccnc3)n2)C1 [Example 232, 1-(3-(6-(4-chlorophenyl)-2-(pyridin-3-yl)pyrimidin-4-yl)tetrahydropyrimidin-1 (2H)-yl)ethan-1-one]	< 6.00	–	–	< 10 nM	–	100%	inhibition at 0.123 µM (AhR [4]; [9]): 99.8%
CC(=O)N[C@@H]1CN(c2cc(-c3ccc(Cl)cc3)nc(-c3cccnc3)n2)C[C@@H]1O [Example 243, N-((3R,4S)-1-(6-(4-chlorophenyl)-2-(pyridin-3-yl)pyrimidin-4-yl)-4-hydroxypyrrolidin-3-yl)acetamide]	7.00 to 8.00	–	–	–	< 10 nM	89.7%	–
